Assays:
[1] = system: bacteria; assay: Determination of sensitivity of bacteria (Table 8); format: cell-based; conditions: product at 50, 40, 30 ppm (columns 10-12)
Method: (§1) The purpose was to determine the antimicrobial action of a combination of cashew nut liquid and ricinoleic acid, and the effects on yeast (Saccharomyces cerevisiae) during alcoholic fermentation, response to different dosages and under acidic conditions. The items below were evaluated: • Laboratory fermentation with Saccharomyces cerevisiae by evaluating the feasibility and growth of yeast, in addition to bacteria developed at different concentrations of the products and mixtures; • Evaluation of the deflocculation power of yeast in fermentations at several dosages of the products and mixtures; • Evaluation of different dosages in the test for Sensitivity of Bacteria to define the quantity of products and mixtures to be recommended in the fermentation process by comparing them to other antibiotics previously tested and approved being used in the current market; • Identification of the characteristics of products and mixtures during the handling; • Evaluation of products and mixtures at low pH by simulating the conventional treatment of the yeast milk. The studies were based on the cause vs. effect methodology, using the observation of the growth of microorganisms as a parameter for responses. […]

[2] = system: bacteria; assay: Determination of sensitivity of bacteria (Table 9); format: cell-based; conditions: product at 30 ppm (column 12; columns 11-14 also Free Bacter 3 ppm, Prevent 5 and 3 ppm)
Method: as §1

[3] = system: Eimeria tenella, Eimeria maxima, and Eimeria acervulina; assay: Performance of chickens inoculated with Eimeria oocysts, first to 40th day of age (Example 2); format: in vivo; conditions: salinomycin 66 ppm, AC 1500 ppm, inoculated at 18th day
Excerpt: (§2) Seven hundred and twenty chickens were randomly distributed into four treatments with six repetitions each, with 30 animals in each repetition. The birds were placed in a conventional yard divided into boxes.
(§3) The four treatments were (1. Non-inoculated, without anticoccidial; 2. Inoculated without anticoccidial; 3. Inoculated-salinomycin (66 ppm); 4. inoculated-AC (1500 ppm)). The birds were inoculated at the 18th day of age with 0.5 liter of inocula containing 10,000, 9,000, and 8,000 sporulated oocysts of Eimeria tenella, Eimeria maxima, and Eimeria acervulina, respectively. This solution was mixed with the feed and offered to each group of 30 birds. At the 24th day of age, the degree of intestinal lesion was evaluated (0—no lesion, 4—maximum lesion). The AC composition was 12% castor oil, 40% cashew nut liquid, and 48% carrier.
(§4) The experimental design utilized seven hundred and twenty chickens which were randomly distributed into four treatments and six repetitions. The averages were compared using the SNK test (Student-Newman-Keuls).

[4] = system: E. acervulina; assay: Degree of intestinal lesion in inoculated chickens, E. acervulina (Example 2); format: in vivo; conditions: 24th day of age; 0 no lesion, 4 maximum lesion; salinomycin 66 ppm, AC 1500 ppm
Excerpt: as §2, §3, §4

[5] = system: E. maxima; assay: Degree of intestinal lesion in inoculated chickens, E. maxima (Example 2); format: in vivo; conditions: 24th day of age; 0 no lesion, 4 maximum lesion; salinomycin 66 ppm, AC 1500 ppm
Excerpt: as §2, §3, §4

[6] = system: E. tenella; assay: Degree of intestinal lesion in inoculated chickens, E. tenella (Example 2); format: in vivo; conditions: 24th day of age; 0 no lesion, 4 maximum lesion; salinomycin 66 ppm, AC 1500 ppm
Excerpt: as §2, §3, §4

Structure (SMILES)	Performance in sensitivity of bacteria test [1]	Performance in sensitivity of bacteria test [2]	Final weight ([3]; 40th day of age) [b g]	Alimentary conversion ([3]; first to 40th day of age) [a]	Ingestion ([3]; first to 40th day of age) [bc g]	Viability ([3]; first to 40th day of age) [a]	Weight gain ([3]; first to 40th day of age) [b g]	Degree of intestinal lesion, E. acervulina [4] [b]	Degree of intestinal lesion, E. maxima [5] [a]	Degree of intestinal lesion, E. tenella [6] [a]
CCCCCC[C@@H](O)C/C=C\CCCCCCCC(=O)O [Product P2, Ricinoleic Acid]	negative results	negative results	–	–	–	–	–	–	–	–
CC[C@@H](C(=O)[C@@H](C)[C@@H](O)[C@H](C)[C@@H]1O[C@@H]([C@@H](CC)C(=O)O)CC[C@@H]1C)[C@H]1O[C@]2(C=C[C@@H](O)[C@]3(CC[C@@](C)([C@H]4CC[C@](O)(CC)[C@H](C)O4)O3)O2)[C@H](C)C[C@@H]1C [salinomycin]	–	–	2305	1.78	4018	97.5	2261	0.72	0.72	1.61

Reference: patent US8377485B2, “Antimicrobial composition and use thereof” (Oligo Basics Industria e Comercio de Racao Ltda, priority 2007, dated 2013)
